From US5672715A, “Herbicidal substituted 3-aryl-pyrazoles” (Monsanto Company, priority 1995, dated 1997)
Like-named read-outs stand apart in the source and are kept apart here.

Legend:
Assay type in all cases: in vivo
Barnyardgrass [1] = assay: pre-emergence herbicide test; details: Echinochloa crus-galli, pre-emergence, read-out: % plant inhibition; for inhibition at 1000.92 g/ha: 0.893 lb/A; for inhibition at 5043.82 g/ha: 4.5 lb/A
In short: (§1)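 Percent inhibition of emergence and growth was recorded roughly 14 days after seeding. Compound was incorporated into, or applied onto, a topsoil cover layer over seeds in pans kept in a greenhouse and watered from below.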

Cocklebur = assay: pre-emergence herbicide test; details: Xanthium strumarium, pre-emergence, read-out: % plant inhibition; for inhibition at 1000.92 g/ha: 0.893 lb/A; for inhibition at 5043.82 g/ha: 4.5 lb/A
In short: as §1

Corn [2] = assay: pre-emergence herbicide test; details: Zea mays, pre-emergence, read-out: % plant inhibition; for inhibition at 1000.92 g/ha: 0.893 lb/A; for inhibition at 5043.82 g/ha: 4.5 lb/A
In short: as §1

Morning Glory = assay: pre-emergence herbicide test; details: Ipomoea, pre-emergence, read-out: % plant inhibition; for inhibition at 1000.92 g/ha: 0.893 lb/A; for inhibition at 5043.82 g/ha: 4.5 lb/A
In short: as §1

Rice = assay: pre-emergence herbicide test; details: Oryza sativa, read-out: % plant inhibition; for inhibition at 1000.92 g/ha: 0.893 lb/A; for inhibition at 5043.82 g/ha: 4.5 lb/A
In short: as §1

Soybean [3] = assay: pre-emergence herbicide test; details: Glycine max, pre-emergence, read-out: % plant inhibition; for inhibition at 1000.92 g/ha: 0.893 lb/A; for inhibition at 5043.82 g/ha: 4.5 lb/A
In short: as §1

Velvetleaf [4] = assay: pre-emergence herbicide test; details: Abutilon theophrasti, pre-emergence, read-out: % plant inhibition; for inhibition at 1000.92 g/ha: 0.893 lb/A; for inhibition at 5043.82 g/ha: 4.5 lb/A
In short: as §1

Yellow Foxtail [5] = assay: pre-emergence herbicide test; details: Setaria, read-out: % plant inhibition; for inhibition at 1000.92 g/ha: 0.893 lb/A; for inhibition at 5043.82 g/ha: 4.5 lb/A
In short: as §1

Yellow Nutsedge = assay: pre-emergence herbicide test; details: Cyperus, read-out: % plant inhibition; for inhibition at 1000.92 g/ha: 0.893 lb/A; for inhibition at 5043.82 g/ha: 4.5 lb/A
In short: as §1

Barnyardgrass [6] = assay: post-emergence herbicide test; details: Echinochloa crus-galli, post-emergence, read-out: % plant inhibition; for inhibition at 200.072 g/ha: 0.1785 lb/A; for inhibition at 1000.92 g/ha: 0.893 lb/A; for inhibition at 5043.82 g/ha: 4.5 lb/A
In short: (§2)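 Soil pans seeded, covered and leveled; grown in greenhouse 2–3 weeks. Sprayed individually (atomizer, 10 psig, 200 gallons/acre). Percent inhibition recorded.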

Blackgrass = assay: post-emergence herbicide test; details: Alopecurus myosuroides, post-emergence, read-out: % plant inhibition; for inhibition at 200.072 g/ha: 0.1785 lb/A; for inhibition at 1000.92 g/ha: 0.893 lb/A; for inhibition at 5043.82 g/ha: 4.5 lb/A
In short: as §2

Corn [7] = assay: post-emergence herbicide test; details: Zea mays, post-emergence, read-out: % plant inhibition; for inhibition at 200.072 g/ha: 0.1785 lb/A; for inhibition at 1000.92 g/ha: 0.893 lb/A; for inhibition at 5043.82 g/ha: 4.5 lb/A
In short: as §2

Soybean [8] = assay: post-emergence herbicide test; details: Glycine max, post-emergence, read-out: % plant inhibition; for inhibition at 200.072 g/ha: 0.1785 lb/A; for inhibition at 1000.92 g/ha: 0.893 lb/A; for inhibition at 5043.82 g/ha: 4.5 lb/A
In short: as §2

Velvetleaf [9] = assay: post-emergence herbicide test; details: Abutilon theophrasti, post-emergence, read-out: % plant inhibition; for inhibition at 200.072 g/ha: 0.1785 lb/A; for inhibition at 1000.92 g/ha: 0.893 lb/A; for inhibition at 5043.82 g/ha: 4.5 lb/A
In short: as §2

Wheat = assay: post-emergence herbicide test; details: Triticum aestivum, post-emergence, read-out: % plant inhibition; for inhibition at 200.072 g/ha: 0.1785 lb/A; for inhibition at 1000.92 g/ha: 0.893 lb/A; for inhibition at 5043.82 g/ha: 4.5 lb/A
In short: as §2

Yellow Foxtail [10] = assay: post-emergence herbicide test; details: Setaria, read-out: % plant inhibition; for inhibition at 200.072 g/ha: 0.1785 lb/A; for inhibition at 1000.92 g/ha: 0.893 lb/A; for inhibition at 5043.82 g/ha: 4.5 lb/A
In short: as §2

Cc1c(-c2cc(F)ccc2F)nn(C)c1C(F)(F)F [Compound 1, 3-(2,5-Difluorophenyl)-1,4-dimethyl-5-(trifluoromethyl)-1H-pyrazole]
inhibition at 1000.92 g/ha (Barnyardgrass [1]): 0% | inhibition at 5043.82 g/ha (Barnyardgrass [1]): 50% | inhibition at 1000.92 g/ha (Cocklebur): 0% | inhibition at 5043.82 g/ha (Cocklebur): 0% | inhibition at 1000.92 g/ha (Corn [2]): 0% | inhibition at 5043.82 g/ha (Corn [2]): 10% | inhibition at 1000.92 g/ha (Morning Glory): 0% | inhibition at 5043.82 g/ha (Morning Glory): 35% | inhibition at 1000.92 g/ha (Rice): 25% | inhibition at 5043.82 g/ha (Rice): 0% | inhibition at 1000.92 g/ha (Soybean [3]): 0% | inhibition at 5043.82 g/ha (Soybean [3]): 0% | inhibition at 1000.92 g/ha (Velvetleaf [4]): 0% | inhibition at 5043.82 g/ha (Velvetleaf [4]): 65% | inhibition at 1000.92 g/ha (Yellow Foxtail [5]): 0% | inhibition at 5043.82 g/ha (Yellow Foxtail [5]): 35% | inhibition at 1000.92 g/ha (Yellow Nutsedge): 0% | inhibition at 5043.82 g/ha (Yellow Nutsedge): 45% | inhibition at 200.072 g/ha (Barnyardgrass [6]): 0% | inhibition at 1000.92 g/ha (Barnyardgrass [6]): 0% | inhibition at 5043.82 g/ha (Barnyardgrass [6]): 0% | inhibition at 200.072 g/ha (Blackgrass; Table 4a): 0% | inhibition at 200.072 g/ha (Blackgrass; Table 5a): 0% | inhibition at 1000.92 g/ha (Blackgrass; Table 4a): 0% | inhibition at 1000.92 g/ha (Blackgrass; Table 5a): 0% | inhibition at 5043.82 g/ha (Blackgrass; Table 4a): 0% | inhibition at 5043.82 g/ha (Blackgrass; Table 5a): 35% | inhibition at 200.072 g/ha (Corn [7]): 0% | inhibition at 1000.92 g/ha (Corn [7]): 0% | inhibition at 5043.82 g/ha (Corn [7]): 40% | inhibition at 200.072 g/ha (Soybean [8]): 0% | inhibition at 1000.92 g/ha (Soybean [8]): 0% | inhibition at 5043.82 g/ha (Soybean [8]): 0% | inhibition at 200.072 g/ha (Velvetleaf [9]): 0% | inhibition at 1000.92 g/ha (Velvetleaf [9]): 0% | inhibition at 5043.82 g/ha (Velvetleaf [9]): 20% | inhibition at 200.072 g/ha (Wheat): 0% | inhibition at 1000.92 g/ha (Wheat): 0% | inhibition at 5043.82 g/ha (Wheat): 10% | inhibition at 200.072 g/ha (Yellow Foxtail [10]): 0% | inhibition at 1000.92 g/ha (Yellow Foxtail [10]): 0% | inhibition at 5043.82 g/ha (Yellow Foxtail [10]): 50%

Cn1nc(-c2cc(F)ccc2F)c(C=O)c1C(F)(F)F [Compound 34]
inhibition at 200.072 g/ha (Barnyardgrass [1]; 0.1785 lb/A): 0% | inhibition at 1000.92 g/ha (Barnyardgrass [1]): 0% | inhibition at 5043.82 g/ha (Barnyardgrass [1]): 0% | inhibition at 200.072 g/ha (Cocklebur; 0.1785 lb/A): 0% | inhibition at 1000.92 g/ha (Cocklebur): 0% | inhibition at 5043.82 g/ha (Cocklebur): 0% | inhibition at 200.072 g/ha (Corn [2]; 0.1785 lb/A): 0% | inhibition at 1000.92 g/ha (Corn [2]): 0% | inhibition at 5043.82 g/ha (Corn [2]): 0% | inhibition at 200.072 g/ha (Morning Glory; 0.1785 lb/A): 0% | inhibition at 1000.92 g/ha (Morning Glory): 0% | inhibition at 5043.82 g/ha (Morning Glory): 0% | inhibition at 200.072 g/ha (Rice; 0.1785 lb/A): 0% | inhibition at 1000.92 g/ha (Rice): 0% | inhibition at 5043.82 g/ha (Rice): 0% | inhibition at 200.072 g/ha (Soybean [3]; 0.1785 lb/A): 0% | inhibition at 1000.92 g/ha (Soybean [3]): 0% | inhibition at 5043.82 g/ha (Soybean [3]): 0% | inhibition at 200.072 g/ha (Velvetleaf [4]; 0.1785 lb/A): 0% | inhibition at 1000.92 g/ha (Velvetleaf [4]): 15% | inhibition at 5043.82 g/ha (Velvetleaf [4]): 75% | inhibition at 200.072 g/ha (Yellow Foxtail [5]; 0.1785 lb/A): 0% | inhibition at 1000.92 g/ha (Yellow Foxtail [5]): 0% | inhibition at 5043.82 g/ha (Yellow Foxtail [5]): 20% | inhibition at 200.072 g/ha (Yellow Nutsedge; 0.1785 lb/A): 0% | inhibition at 1000.92 g/ha (Yellow Nutsedge): 0% | inhibition at 5043.82 g/ha (Yellow Nutsedge): 20% | inhibition at 200.072 g/ha (Barnyardgrass [6]): 0% | inhibition at 1000.92 g/ha (Barnyardgrass [6]): 0% | inhibition at 5043.82 g/ha (Barnyardgrass [6]): 10% | inhibition at 200.072 g/ha (Blackgrass; Table 4a): 0% | inhibition at 200.072 g/ha (Blackgrass; Table 5a): 0% | inhibition at 1000.92 g/ha (Blackgrass; Table 4a): 0% | inhibition at 1000.92 g/ha (Blackgrass; Table 5a): 0% | inhibition at 5043.82 g/ha (Blackgrass; Table 4a): 0% | inhibition at 5043.82 g/ha (Blackgrass; Table 5a): 30% | inhibition at 200.072 g/ha (Corn [7]): 0% | inhibition at 1000.92 g/ha (Corn [7]): 0% | inhibition at 5043.82 g/ha (Corn [7]): 15% | inhibition at 200.072 g/ha (Soybean [8]): 0% | inhibition at 1000.92 g/ha (Soybean [8]): 10% | inhibition at 5043.82 g/ha (Soybean [8]): 15% | inhibition at 200.072 g/ha (Velvetleaf [9]): 0% | inhibition at 1000.92 g/ha (Velvetleaf [9]): 0% | inhibition at 5043.82 g/ha (Velvetleaf [9]): 20% | inhibition at 200.072 g/ha (Wheat): 0% | inhibition at 1000.92 g/ha (Wheat): 0% | inhibition at 5043.82 g/ha (Wheat): 10% | inhibition at 200.072 g/ha (Yellow Foxtail [10]): 0% | inhibition at 1000.92 g/ha (Yellow Foxtail [10]): 0% | inhibition at 5043.82 g/ha (Yellow Foxtail [10]): 0%
